Results published in the NIST ThermoML archive (doi:10.1007/s10765-005-8592-5).
Where “and” joins values, the source holds several entries; their conditions need not be identical. Equal values may be shown once. ± gives the expanded uncertainty stated by the source.

Assay: molar heat capacity at constant volume
Details: Fluid (supercritical or subcritical phases), Vacuum adiabatic calorimetry

CCC [propane]
Details | molar heat capacity at constant volume [J/K/mol]
270.15 K, 4427 kPa | 71.74 ± 2.9
275.15 K, 7953 kPa | 71.26 ± 2.9
280.15 K, 11458 kPa | 71.3 ± 2.9
285.15 K, 14939 kPa | 72.63 ± 2.9
290.15 K, 18398 kPa | 73.46 ± 3
295.15 K, 21836 kPa | 74.57 ± 3
300.15 K, 25251 kPa | 74.61 ± 3
305.15 K, 28640 kPa | 74.35 ± 3
310.15 K, 6561 kPa | 74.57 ± 3
315.15 K, 9049 kPa | 75.23 ± 3
320.15 K, 11532 kPa | 76.15 ± 3
325.15 K, 3660 kPa | 77.96 ± 3.1
325.15 K, 14008 kPa | 76.37 ± 3
330.15 K, 5594 kPa | 78.75 ± 3.2
330.15 K, 16475 kPa | 76.64 ± 3.1
335.15 K, 7530 kPa | 78.31 ± 3.1
335.15 K, 18934 kPa | 76.9 ± 3.1
340.15 K, 9468 kPa | 77.7 ± 3.1
340.15 K, 21386 kPa | 77.21 ± 3.1
345.15 K, 11404 kPa | 77.26 ± 3.1
345.15 K, 23827 kPa | 76.33 ± 3
350.15 K, 13339 kPa | 79.46 ± 3.2
350.15 K, 26253 kPa | 77.52 ± 3.1
355.15 K, 15273 kPa | 77.39 ± 3.1
355.15 K, 28668 kPa | 77.43 ± 3.1
360.15 K, 17203 kPa | 77.74 ± 3.1
365.15 K, 19126 kPa | 78.62 ± 3.1
370.15 K, 21044 kPa | 79.15 ± 3.2
375.15 K, 5095 kPa | 98.6 ± 4
380.15 K, 5744 kPa | 93.04 ± 3.7
385.15 K, 6404 kPa | 89.6 ± 3.6
390.15 K, 7072 kPa | 86.07 ± 3.4
395.15 K, 7746 kPa | 84.84 ± 3.4
400.15 K, 8425 kPa | 80.43 ± 5.6
405.15 K, 9109 kPa | 78.84 ± 3.2
410.15 K, 9795 kPa | 79.99 ± 3.2
420.15 K, 11176 kPa | 79.81 ± 3.2
425.15 K, 11869 kPa | 81.75 ± 3.3

CC(C)C [2-methylpropane]
Details | molar heat capacity at constant volume
415.15 K, 4254 kPa | 222.08 ± 9 J/K/mol and 230.8 ± 9.3 J/K/mol
420.15 K, 4664 kPa | 202.67 ± 8.1 J/K/mol
420.15 K, 4665 kPa | 202.96 ± 8.1 J/K/mol
425.15 K, 5082 kPa | 186.05 ± 8 J/K/mol
425.15 K, 5083 kPa | 187.1 ± 8.4 J/K/mol
